Numbered stars: 1 amine (or outer) side, 2 acyl side, 3 side chain; on linkers, the order of the positions; unused ones are H or OH. Bridge positions count the residues as written; N and C are the ends. Square brackets hold non-standard residues; d marks the D form. Peptide text beside a SMILES is read from it. I, II: the chains in the order shown. Actinocin(9to1) = Cc1c2oc3c(C)ccc(C(=O)[*:1])c3nc-2c(C(=O)[*:2])c(N)c1=O; NMeV = CN[C@H](C(=O)O)C(C)C; Sar = CNCC(=O)O
Legend:
BUBR1 mRNA = BUBR1 mRNA stability assay with Actinomycin D; type: cell-based, human; details: Fig. 4h, +Act D (shCtrl+Act D or shPTBP1#1+Act D), shCtrl = 1
Method: RNA preparation was performed as described. Total RNA was extracted using Trizol reagent (TaKaRa) following the manufacturer’s instructions. cDNA was generated with M-MLV reverse transcriptase (Promega, catalog no. M170B). Reverse transcription with PCR (RT-PCR) was performed with SYBR Green Real-Time PCR Master Mix (TaKaRa). RT-PCR was carried out on a QuantStudio 3 Real-Time-PCR Instrument (ABI). Data were analyzed and further processed in QuantStuido Design and Analysis Software and GraphPad Prism v.7. Fold change in gene expression over control samples was calculated using the 2^–ΔΔCt method, where β-actin Ct values were used as an internal control. The primer sequences for PCR, synthesized by Comate Bioscience, were as follows: […]

HGADFN003 cells [1] = assay: Ki67 immunofluorescence of HGADFN003 cells; type: cell-based, human; details: Fig.1o, HGADFN003, Vector 45, 38, 49, P=0.0031
Method: (§1) Immunofluorescence was performed as described previously. Cells were plated on cover slips in 12-well plates, left overnight before the treatment. Cells were fixed in 1% formaldehyde in culture medium for 10 min at 37 °C and permeabilized with 0.2% Triton X-100 in PBS for 10 min at room temperature. Cells were washed twice in PBS and blocked for 1 h with 5% BSA in PBS and then incubated with primary antibodies at 4 °C overnight, washed three times in PBS and incubated with secondary antibodies for 1 h at room temperature. Cell nuclei were counterstained with a 500 nM concentration of 4,6-diamidino-2-phenylindole (DAPI) (Sigma). Images were acquired by a fluorescence microscope (OLYMPUS FV-1000, Carl Zeiss LSM880 or Leica DMi8) and analyzed with software NIS-Elements AR v.5.0.1 (Nikon), FLUOVIEW v.4.2b (OLYMPUS), ZEN v.2.3 SP1 (Carl Zeiss) and Leica Application Suite X v.3.6.0.24 (Leica). Cells were quantified by investigators who were blinded to the identity of the analyzed cell.

IMR90 cells [2] = assay: Ki67 immunofluorescence of IMR90 cells; type: cell-based, human; details: Fig.1k, IMR90
Method: as §1

IMR90 cells [3] = assay: SA-β-gal staining of IMR90 cells (progerin, BUBR1, shBUBR1); type: cell-based, human; details: Fig.1i
Method: (§2) SA-β-gal staining was performed as previously described. Cells were fixed in 0.5% glutaraldehyde for 15 min at room temperature, washed three times with PBS (pH 6.0) containing 1 mM MgCl2 and exposed overnight 37 °C to containing 1 mg ml^–1 5-bromo-4-chloro-3-indolyl-β-D-galactopyranoside (MCE, catalog no. HY-15934), 0.12 mM potassium ferrocyanide (Sigma, catalog no. P3289), 0.12 mM potassium ferricyanide (Sigma, catalog no. P8131) and 1 mM MgCl2 PBS buffer (pH 6.0). Cells were washed three times with H2O and observed under a microscope (OLYMPUS CKX53). SA-β-gal positive cells were quantified by investigators who were blinded to the identity of the analyzed cell.

[4] = test system: IMR90 and HGADFN003 cells; assay: Metaphase chromosome spread assay, aneuploid cells; type: cell-based, human
Method: For the metaphase chromosome spread assay, 1.5 × 10^6 cells were seeded in a 6 cm dish and incubated for 24 h with fresh medium. Then, colchicine was added to a final concentration of 0.2 μg ml^–1 and the cells were incubated at 37 °C for 2 h. After digestion, we collected and rinsed the cells with PBS. The cells were centrifuged at 160g for 10 min. Then, 1 M KCl was added to a final concentration of 0.075 mol l^–1 and the samples were incubated at 37 °C for 20 min. The cells were centrifuged, and the supernatant aspirated. The pellet was resuspended, and 1 ml methanol:glacial acetic acid (3:1) solution was added. The sample was rested at room temperature for 10 min. Then, the cells were centrifuged at 160g for 10 min. The supernatant was aspirated, and the pellet resuspended in 1 ml fixative for 30 min. The cells were centrifuged and the pellet was suspended in 1 ml fixative again for 30 min. The cells were centrifuged at 160g for 10 min and the supernatant aspirated. The pellet was then resuspended in a small volume of fixative (typically less than 500 μl) until the cell suspension appeared lightly milky. A small quantity of the cell suspension was held vertically in a pipette with the end about 10 cm above the slide. A single drop was released from this height onto the slide and allowed to air dry. The cells were then incubated with 500 nM of DAPI (Invitrogen) for 10 min. Slides were examined with an Olympus BX53 fluorescence microscope and the images were captured by using the Olympus IPP v.7.0 software. Aneuploid cells were quantified by investigators who were blinded to the identity of the analyzed cell.

HGADFN003 cells [5] = assay: SA-β-gal staining of HGADFN003 cells; type: cell-based, human; details: Fig.1m, HGADFN003, Vector 65, 68, 69, 65, P<0.0001
Method: as §2

PTBP1–BUBR1 mRNA 3′-UTR = assay: RIP assay of PTBP1 and BUBR1 mRNA 3′-UTR in HEK-293T cells; type: cell-based
Method: RIP and RNA pulldown assays were performed as previously described. The RIP experiment was carried out using the EZ-Magna RIP Kit (Millipore, catalog no. 17-701). The coprecipitated RNAs were extracted through Trizol reagent and detected by RT-PCR. The primer sequences for PCR, synthesized by Comate Bioscience, were as follows:
BUBR1-3′UTR_fwd (5′-[…]-3′) and BUBR1-3′UTR_rev (5′- […]-3′).

BUBR1 mRNA 3ʹ-UTR = assay: Luciferase activity assay of BUBR1 mRNA 3ʹ-UTR in HEK-293T cells; type: cell-based; details: Fig. 4k, Vector = 1, P=0.0012
Method: The experiments were performed as described previously. The BUBR1 (–1,200 to +100) promoter or the DNA fragment of BUBR1 mRNA 3′-UTR was inserted into the pGL4.20 vector. Cells were plated in 24-well plates. After 24 h, cells were cotransfected with 200 ng of the indicated firefly luciferase reporter plasmid and 50 ng of Renilla luciferase normalization control plasmid using PEI. At 48 h after transfection, cell lysates were collected to measure luciferase activity using the Dual-Luciferase Reporter Assay System (Promega, catalog no. E1910) according to the manufacturer’s instructions. Luciferase reporter assay was carried out on an TD-20/20 Turner Designs luminometer, data were analyzed and further processed in Microsoft Excel and GraphPad Prism v.7.

[6] = test system: progerin–BUBR1 interaction; assay: CoIP of progerin and BUBR1 in HEK-293T cells; type: cell-based; details: HEK-293T co-transfected with truncated mutants and HA-progerin
Method: Detailed descriptions of CoIP were described previously[55],[56]. Cells were harvested and washed three times in cold PBS, then lysed in CoIP buffer (25 mM Tris-HCl (pH 7.5), 150 mM KCl, 5 mM EDTA, and 0.5% NP-40) plus protease inhibitor cocktail tablet (Roche). Incubate on ice and shock lysates on the vortex shaker 15 times for 30 s each. Microcentrifuge in 12,000g for 15 min at 4 °C, collect the supernatant, and incubate with 3 μg primary antibodies with gentle shaking overnight at 4 °C, followed by adding 20–40 μl Pure Proteome Protein A/G Mix Magnetic Beads (Millipore, catalog no. […]02) for 3 h. Wash the beads three times with 1 ml CoIP buffer for 8 min each, resuspend in 50 μl 1× loading buffer, and incubate at 100 °C for 8 min. Throw beads away and analyze by immunoblotting.

## Cc1c2oc3c(C)ccc(C(=O)N[C@@H]4C(=O)N[C@H](C(C)C)C(=O)N5CCC[C@H]5C(=O)N(C)CC(=O)N(C)[C@@H](C(C)C)C(=O)O[C@@H]4C)c3nc-2c(C(=O)N[C@@H]2C(=O)N[C@H](C(C)C)C(=O)N3CCC[C@H]3C(=O)N(C)CC(=O)N(C)[C@@H](C(C)C)C(=O)O[C@@H]2C)c(N)c1=O [ActD] (I: T[dV]P[Sar][NMeV] / II: T[dV]P[Sar][NMeV]; ester I:1-I:C, II:1-II:C; linker I:N-II:N via Actinocin(9to1))
BUBR1 mRNA; replicate 1
  BUBR1 relative (to β-actin) mRNA level (2-ΔΔCt): 0.6794
BUBR1 mRNA; replicate 2
  BUBR1 relative (to β-actin) mRNA level (2-ΔΔCt): 0.7373
BUBR1 mRNA; replicate 3
  BUBR1 relative (to β-actin) mRNA level (2-ΔΔCt): 0.615

## BUBR1
HGADFN003 cells [1]; replicate 1
  Relative percentage of Ki67 positive cells: 78%
HGADFN003 cells [1]; replicate 2
  Relative percentage of Ki67 positive cells: 74%
HGADFN003 cells [1]; replicate 3
  Relative percentage of Ki67 positive cells: 67%
IMR90 cells [2]; Vector 67, 75, 60, P vs Vector: BUBR1 0.803, progerin 0.0018, replicate 1
  Relative percentage of Ki67 positive cells: 64%
IMR90 cells [2]; Vector 67, 75, 60, P vs Vector: BUBR1 0.803, progerin 0.0018, replicate 2
  Relative percentage of Ki67 positive cells: 78%
IMR90 cells [2]; Vector 67, 75, 60, P vs Vector: BUBR1 0.803, progerin 0.0018, replicate 3
  Relative percentage of Ki67 positive cells: 65%
IMR90 cells [2]; progerin+BUBR1, P=0.0042 vs progerin, replicate 1
  Relative percentage of Ki67 positive cells: 48%
IMR90 cells [2]; progerin+BUBR1, P=0.0042 vs progerin, replicate 2
  Relative percentage of Ki67 positive cells: 51%
IMR90 cells [2]; progerin+BUBR1, P=0.0042 vs progerin, replicate 3
  Relative percentage of Ki67 positive cells: 45%
IMR90 cells [3]; Vector 2, 1, 2, P vs Vector: BUBR1 0.2302, progerin 0.0003, replicate 1
  Relative percentage of SA-β-gal positive cells: 3%
IMR90 cells [3]; Vector 2, 1, 2, P vs Vector: BUBR1 0.2302, progerin 0.0003, replicate 2
  Relative percentage of SA-β-gal positive cells: 2%
IMR90 cells [3]; Vector 2, 1, 2, P vs Vector: BUBR1 0.2302, progerin 0.0003, replicate 3
  Relative percentage of SA-β-gal positive cells: 2%
IMR90 cells [3]; progerin+BUBR1, P=0.0026 vs progerin, replicate 1
  Relative percentage of SA-β-gal positive cells: 15%
IMR90 cells [3]; progerin+BUBR1, P=0.0026 vs progerin, replicate 2
  Relative percentage of SA-β-gal positive cells: 18%
IMR90 cells [3]; progerin+BUBR1, P=0.0026 vs progerin, replicate 3
  Relative percentage of SA-β-gal positive cells: 20%
[4]; Fig.1p, IMR90, Vector 6, 5, 8, replicate 1
  Relative percentage of aneuploid cells: 5%
[4]; Fig.1p, IMR90, Vector 6, 5, 8, replicate 2
  Relative percentage of aneuploid cells: 5%
[4]; Fig.1p, IMR90, Vector 6, 5, 8, replicate 3
  Relative percentage of aneuploid cells: 7%
[4]; Fig.1p, IMR90, progerin+BUBR1, replicate 1
  Relative percentage of aneuploid cells: 25%
[4]; Fig.1p, IMR90, progerin+BUBR1, replicate 2
  Relative percentage of aneuploid cells: 17%
[4]; Fig.1p, IMR90, progerin+BUBR1, replicate 3
  Relative percentage of aneuploid cells: 22%
[4]; Fig.1q, HGADFN003, Vector 29, 35, 32, P=0.0053, replicate 1
  Relative percentage of aneuploid cells: 21%
[4]; Fig.1q, HGADFN003, Vector 29, 35, 32, P=0.0053, replicate 2
  Relative percentage of aneuploid cells: 17%
[4]; Fig.1q, HGADFN003, Vector 29, 35, 32, P=0.0053, replicate 3
  Relative percentage of aneuploid cells: 14%
HGADFN003 cells [5]; replicate 1
  Relative percentage of SA-β-gal positive cells: 48%
HGADFN003 cells [5]; replicate 2
  Relative percentage of SA-β-gal positive cells: 49%
HGADFN003 cells [5]; replicate 3
  Relative percentage of SA-β-gal positive cells: 50%
HGADFN003 cells [5]; replicate 4
  Relative percentage of SA-β-gal positive cells: 42%

## PTBP1
PTBP1–BUBR1 mRNA 3′-UTR; Fig. 4i, IgG = 1, P=0.0086, replicate 1
  PTBP1 enrichment on BUBR1-3'UTR (2-ΔΔCt): 21.8107
PTBP1–BUBR1 mRNA 3′-UTR; Fig. 4i, IgG = 1, P=0.0086, replicate 2
  PTBP1 enrichment on BUBR1-3'UTR (2-ΔΔCt): 40.6928
PTBP1–BUBR1 mRNA 3′-UTR; Fig. 4i, IgG = 1, P=0.0086, replicate 3
  PTBP1 enrichment on BUBR1-3'UTR (2-ΔΔCt): 24.8579
PTBP1–BUBR1 mRNA 3′-UTR; Fig. 4n, PTBP1, Vector = 1, P<0.0001 vs Vector, replicate 1
  PTBP1 enrichment on BUBR1-3'UTR (2-ΔΔCt): 12.7685
PTBP1–BUBR1 mRNA 3′-UTR; Fig. 4n, PTBP1, Vector = 1, P<0.0001 vs Vector, replicate 2
  PTBP1 enrichment on BUBR1-3'UTR (2-ΔΔCt): 13.1604
PTBP1–BUBR1 mRNA 3′-UTR; Fig. 4n, PTBP1, Vector = 1, P<0.0001 vs Vector, replicate 3
  PTBP1 enrichment on BUBR1-3'UTR (2-ΔΔCt): 13.6473
BUBR1 mRNA 3ʹ-UTR; replicate 1
  Relative luciferase activity of BUBR1 3'UTR (PTBP1/Vector): 3.3
BUBR1 mRNA 3ʹ-UTR; replicate 2
  Relative luciferase activity of BUBR1 3'UTR (PTBP1/Vector): 4
BUBR1 mRNA 3ʹ-UTR; replicate 3
  Relative luciferase activity of BUBR1 3'UTR (PTBP1/Vector): 3

## progerin-C36: truncated progerin-C, aa residues 579–614, used for the design of UPCP (YNLRSRTVLCGTCGQPADKASASGSGAQSPQNCSIM)
[6]
  block of progerin–BUBR1 binding by truncated progerin-C: could block the binding of progerin and BUBR1
